What was measured:
MMP1 protein (pdb1cgl) = biological target: T1, MMP1 protein (pdb1cgl) (Homo sapiens, UniProt P03956); assay: Molecular docking (SYBYL-X 2.1.1, Surflex-Dock 2.7) of binding affinity to collagenase; conditions: from Surflex-Dock total score
T1 sequence (P03956 101-269 limits assumed): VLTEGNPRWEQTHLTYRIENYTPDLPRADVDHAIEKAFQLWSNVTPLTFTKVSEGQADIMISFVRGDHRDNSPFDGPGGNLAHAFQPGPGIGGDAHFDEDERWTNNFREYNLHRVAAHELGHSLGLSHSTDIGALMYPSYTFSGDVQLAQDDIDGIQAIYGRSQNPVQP
Experimental: Molecular modeling was conducted through a computer simulation program.
Target structure: MMP1 protein (pdb1cgl)
Software: SYBYL-X 2.1.1, Surflex-Dock2.7
Through a computer simulation program, a study was conducted on how to promote collagenase enzyme inhibitory activity and percutaneous absorption during peptide modification.
Total score is a value indicating the degree of binding affinity of a docked structure including a crash and a polar interaction in the unit of pKd, and the larger the value, the higher the binding affinity. And, the similarity is a value comparing the similarity with the structure already bonded to the 1cgl, and means that the closer to 1, the more similar. The result of such docking means that the addition of an appropriate modification residue through a docking simulation of computer chemistry may increase the binding affinity and similarity.
However, when compared with the overall consensus score, a binding affinity similar to or higher than that of pdb1cgl_ligand may be expected, particularly in the modified GPN and PGN, too.

elastase = biological target: T2, elastase (Sus scrofa, UniProt P00772); assay: Elastase inhibitory activity (EnzChek Elastase Assay Kit, DQ elastin); type: biochemical
T2 construct: purchased Invitrogen
T2 sequence (P00772 27-266): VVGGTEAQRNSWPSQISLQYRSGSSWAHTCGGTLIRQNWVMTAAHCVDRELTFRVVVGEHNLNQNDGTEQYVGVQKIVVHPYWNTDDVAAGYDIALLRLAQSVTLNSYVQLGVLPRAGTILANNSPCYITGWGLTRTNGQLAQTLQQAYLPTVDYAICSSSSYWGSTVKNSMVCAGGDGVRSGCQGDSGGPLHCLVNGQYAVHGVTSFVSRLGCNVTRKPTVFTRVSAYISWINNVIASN
Experimental: Elastase inhibitory activity was performed by purchasing EnzChek® Elastase Assay Kit (600 Assays) reagent from Invitrogen. First, DQ elastin stock solution (1 mg/ml) was prepared by adding 1.0 ml of DDW to 1 mg DQ elastin vial. The 18 ml of DDW was added to 2 ml of 10× reaction buffer, so as to dilute reaction buffer. Then, an elastase enzyme reagent was prepared, and diluted with reaction buffer to a final concentration of 0.2 U/ml as working solution. Three samples of 50 ? each were prepared in a 96-well plate. The 50 ? of reaction buffer was added to 50 ? of DQ elastin and sample blank, and 50 ? of working solution was added to a sample, which were then left in a light-blocked state at room temperature for about one hour, and then fluorescence intensity was measured at excitation wavelength 505 nm and emission wavelength 515 nm using ELISA plate reader (VICTOR X3™, PerkinElmer, US).
Copper peptide (Comparative Example 12) and EGCg (Comparative Example 13), which is widely used as a raw material for functional cosmetics, were prepared at the same concentration and used as a positive control.
EGCg (epigallocatechin gallate) is a kind of polyphenol, which is an extract of green tea leaves, and is used as a cosmetic raw material for anti-oxidation, inflammation reduction, and wrinkle alleviation, and Copper peptide is used as a raw material for promoting wound healing, strengthening skin elasticity, and increasing subcutaneous fat layer to suppress skin aging due to excellent skin regeneration ability.

NC(=O)C[C@H](NC(=O)CNC(=O)[C@@H]1CCCN1)C(=O)O [PGN, Pro-Gly-Asn, reference compound]
binding affinity compared to 1cgl ligand (MMP1 protein (pdb1cgl)): ~61.5%
inhibition at 20 µg/mL (elastase; 0.02 mg/ml): 1.8 ± 0.6%
inhibition at 40 µg/mL (elastase; 0.04 mg/ml): 2.8 ± 1.2%
inhibition at 60 µg/mL (elastase; 0.06 mg/ml): 6.1 ± 1.9%
inhibition at 100 µg/mL (elastase; 0.1 mg/ml): 7.5 ± 3.2%
inhibition at 1000 µg/mL (elastase; 1 mg/ml): 7.5%
IC50 (elastase; FIGS. 8 and 9): 384 µM

Source: patent US20230312643A1, “PEPTIDE DERIVATIVE WITH COLLAGENASE INHIBITORY ACTIVITY, AND USE THEREOF” (SUNMARINE BIOTECH, priority 2020, published 2023)
